From patent EP4781984A1 (Beyang Therapeutics Co., Ltd., priority 2023, dated 2025)
≈ marks a conversion by molar mass, not a printed value.

Legend:
melanin = test: Compound binding to melanin; format: in vitro ADME; conditions: cuttlefish (Sepia officinalis), melanin suspension (1 mg/mL), percentage of free drug (not bound to melanin), 2 µM compound, melanin 1 mg/mL in PBS pH 7.4, 37°C
Text: Detection of Compound Binding to Melanin
Pigmented ocular tissues contain melanin within intracellular melanosomes. Drugs bind to melanin to varying degrees, from no binding to extensive binding. Therefore, melanin binding is an important characteristic affecting ocular drug delivery and biodistribution. The ability of compounds to bind to melanin must be considered in ocular drug development.
Melanin derived from cuttlefish (Sepia officinalis) melanin was purchased from Sigma Aldrich (St Louis, MO).
First, prepare a 1 mg/mL melanin suspension in PBS (pH 7.4). As a matrix washing step, suspended particles were centrifuged at 3000 rpm for 5 minutes. The resulting pellet was resuspended in fresh PBS buffer, heated to 37°C with continuous shaking, and incubated for 1 hour. Accurately pipette 2 microliters of test compound stock solution (0.1 mM) into 98 microliters of melanin suspension (1 mg/mL), resulting in a final incubation concentration of 2 µM. Similarly, accurately pipette 2 microliters of stock solution (0.1 mM) into 98 microliters of PBS buffer (containing 0.1% BSA) as a blank control sample. Samples were incubated at 37°C for 2 hours on a shaker (80-90 rpm). Then centrifuged at room temperature. 50 microliters of supernatant was aspirated and added to 50 microliters of precipitation agent (containing internal standard). All samples above were subjected to protein precipitation, centrifuged, the supernatant was taken, diluted with water (if necessary), and then injected for analysis. Simultaneously, high-binding compounds Sunitinib and chloroquine, and the low-binding compound celecoxib were measured as positive controls. An LC-MS/MS analytical method for determining compound concentration was established. The ratio of analyte/internal standard peak areas (Aanalyte/AIS) measured in the samples, calibrated by the dilution factor, was used as the surrogate concentration for data processing. The binding rate of the compound to melanin (Fb) is calculated by the formula: Fb = 100−(Ctest)/(Ccontrol) × 100% [formula]
Ctest is the drug concentration of the compound in the melanin incubation sample or the peak area ratio of the test compound to the internal standard. Ccontrol is the drug concentration of the compound in the blank control sample or the peak area ratio of the test compound to the internal standard. Percentage of free drug (Fu%) = 100 - Fb The binding rates of the compounds of the present invention to melanin are shown in the table below: Table 11. Binding Rate of Compounds to Melanin

[1] = Thermodynamic solubility test; format: physicochemical; conditions: buffer solution, aqueous buffer, thermodynamic from solid; thermodynamic solubility, room temperature, 8 hours shaking; buffers pH 2.0, 6.5, 7.4 used, pH of the tabulated value not given
Protocol: Solubility Test of Compounds
Table 9. Reagents and Instruments
After sonication for 10 minutes, they were fixed on a shaker and shaken at room temperature for 8 hours. After shaking, they were sonicated for 10 minutes and centrifuged at 13000 rpm for 15 minutes. 0.1 mL of supernatant was aspirated into a new tube, rinsed with 5 mL of buffer by shaking, and the liquid was discarded. 0.5 mL of supernatant was transferred again to a new tube, centrifuged at 13000 rpm for 15 minutes, and the supernatant was taken (diluted with water if necessary) for LC-MS injection analysis. Sample concentrations were quantified using a 3-5 point calibration curve.

EGFR = target: T1, EGFR (Homo sapiens, UniProt P00533); test: Kinase inhibitory activity, Mobility Shift Assay (EGFR); format: biochemical
T1 construct: purchased Carna 08-115
T1 sequence (P00533 25-1210): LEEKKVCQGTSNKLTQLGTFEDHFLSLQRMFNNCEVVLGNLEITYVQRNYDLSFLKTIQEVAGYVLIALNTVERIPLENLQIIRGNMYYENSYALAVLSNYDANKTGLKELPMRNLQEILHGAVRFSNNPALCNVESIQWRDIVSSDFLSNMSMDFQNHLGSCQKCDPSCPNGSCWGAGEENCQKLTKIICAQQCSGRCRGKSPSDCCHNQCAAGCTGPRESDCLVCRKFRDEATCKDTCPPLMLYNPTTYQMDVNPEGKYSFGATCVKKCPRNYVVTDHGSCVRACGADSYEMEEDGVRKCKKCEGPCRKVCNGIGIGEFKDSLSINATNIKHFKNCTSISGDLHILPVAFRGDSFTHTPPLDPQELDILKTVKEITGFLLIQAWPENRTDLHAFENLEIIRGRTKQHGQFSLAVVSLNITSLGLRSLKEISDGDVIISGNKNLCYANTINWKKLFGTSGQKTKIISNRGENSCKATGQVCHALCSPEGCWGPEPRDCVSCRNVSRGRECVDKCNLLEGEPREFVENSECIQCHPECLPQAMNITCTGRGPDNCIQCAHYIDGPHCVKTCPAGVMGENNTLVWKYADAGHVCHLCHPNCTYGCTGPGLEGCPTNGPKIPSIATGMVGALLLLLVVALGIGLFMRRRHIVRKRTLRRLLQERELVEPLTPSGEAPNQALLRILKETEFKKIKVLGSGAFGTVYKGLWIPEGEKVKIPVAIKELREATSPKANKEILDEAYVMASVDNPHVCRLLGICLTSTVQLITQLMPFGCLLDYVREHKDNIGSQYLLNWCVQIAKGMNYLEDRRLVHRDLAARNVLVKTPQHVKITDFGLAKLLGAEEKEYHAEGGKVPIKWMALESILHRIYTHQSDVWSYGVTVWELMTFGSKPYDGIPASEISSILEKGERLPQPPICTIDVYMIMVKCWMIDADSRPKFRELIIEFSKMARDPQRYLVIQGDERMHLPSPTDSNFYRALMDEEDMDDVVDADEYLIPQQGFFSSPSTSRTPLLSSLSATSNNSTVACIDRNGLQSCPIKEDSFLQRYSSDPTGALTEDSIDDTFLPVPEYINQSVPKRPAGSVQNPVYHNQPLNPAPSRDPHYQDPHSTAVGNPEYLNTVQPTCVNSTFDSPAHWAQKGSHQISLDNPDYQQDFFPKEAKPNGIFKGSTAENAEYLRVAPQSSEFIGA
Protocol: Assay for Inhibitory Activity of Compounds Against VEGFR and EGFR Kinases
This assay directly monitors the inhibitory activity of compounds on kinase phosphorylation by measuring non-phosphorylated and phosphorylated substrates in the kinase reaction using Mobility Shift Assays/IMAP™ analysis. Table 2. Reagents and Instruments
Kinase and DTT were added to 1X kinase buffer to form a 2.5X kinase solution; 10 µL of the 2.5X kinase solution was transferred to a 384-well reaction plate, and 1X kinase buffer was added to the negative control wells. The plate was incubated at room temperature for 10 minutes; FAM-labeled peptide, MgCl2, ATP, and other reagents were added to 1X kinase buffer to form a 2.5X substrate solution; 10 µL of the above 2.5X substrate solution was transferred to the 384-well reaction plate; the plate was incubated at 28°C for varying times, and then 25 µL of stop solution was added to the 384-well reaction plate to terminate the reaction. Conversion rate data were read on a CaliperEZ Reader II. […] IC50 values were fitted using XLFit excel add-in version 5.4.0.8. Y = Bottom + (Top−Bottom)/(1 + […]) [formula]
X is the log value of compound concentration, Y is the inhibition rate (% inhibition).

SMILES	fraction unbound at 2 h, 2 µM (melanin)	solubility at 8 h [1]	IC50 (EGFR)
O=C(NC1CC1)c1ccccc1Sc1ccc2c(/C=C/c3ccc(OCCN4CCCC4)cn3)n[nH]c2c1 [Compound I-8, N-cyclopropyl-2-((3-((E)-2-(5-(2-(pyrrolidin-1-yl)ethoxy)pyridin-2-yl)ethenyl)-1H-indazol-6-yl)thio)benzamide]	0.01 to 0.05	1870 µg/mL (≈ 3560 µM)	
CNC(=O)c1ccccc1Sc1ccc2c(/C=C/c3cnn(CCN4CCCC4)c3)n[nH]c2c1 [Compound I-9]	0.01 to 0.05	363 µg/mL (≈ 768 µM)	
CNC(=O)c1ccccc1Sc1ccc2c(/C=C/c3cccc(OCCN4CCCC4)c3)n[nH]c2c1 [Compound I-15]	0.01 to 0.05	78.8 µg/mL (≈ 158 µM)	
CNC(=O)c1ccccc1Sc1ccc2c(C#Cc3ccc(OCCN4CCCC4)cn3)n[nH]c2c1 [Compound I-16]	≤ 0.01	27.2 µg/mL (≈ 54.7 µM)	
CNC(=O)c1ccccc1Sc1cnc2c(/C=C/c3ccccn3)n[nH]c2c1 [Compound I-21, N-methyl-2-({3-[(E)-2-(pyridin-2-yl)ethenyl]-1H-pyrazolo[4,3-b]pyridin-6-yl}sulfanyl)benzamide]	0.01 to 0.05	0.9 µg/mL (≈ 2.32 µM)	
O=C(NC1CC1)c1ccccc1Sc1ccc2c(/C=C/c3ccc(CN4CCCC4)cn3)n[nH]c2c1 [Compound I-41]	> 0.05		
O=C(NC1CC1)c1ccccc1Sc1ccc2c(/C=C/c3cnn(CCCN4CCCC4)c3)n[nH]c2c1 [Compound I-43]	0.01 to 0.05	71.6 µg/mL (≈ 140 µM)	
CN(C)CCOc1ccc(/C=C/c2n[nH]c3cc(Sc4ccccc4C(=O)NC4CC4)ccc23)nc1 [Compound I-51, N-cyclopropyl-2-({3-[(E)-2-{5-[2-(dimethylamino)ethoxy]pyridin-2-yl}ethenyl]-1H-indazol-6-yl}sulfanyl)benzamide]	0.01 to 0.05		
CCN(CC)CCOc1ccc(/C=C/c2n[nH]c3cc(Sc4ccccc4C(=O)NC4CC4)ccc23)nc1 [Compound I-52]	> 0.05		
O=C(NC1CC1)c1ccccc1Sc1ccc2c(/C=C/c3ccc(OCCN4CCCCC4)cn3)n[nH]c2c1 [Compound I-53]	> 0.05		
O=C(NC1CC1)c1ccccc1Sc1ccc2c(/C=C/c3cnn(CCN4CCCC4)c3)n[nH]c2c1 [Compound I-61]	0.01 to 0.05		
CCN(CC)Cc1ccc(/C=C/c2n[nH]c3cc(Sc4ccccc4C(=O)NC4CC4)ccc23)nc1 [Compound I-78]	0.01 to 0.05	27.6 µg/mL (≈ 55.5 µM)	
CCN(CC)Cc1ccc(/C=C/c2n[nH]c3cc(Sc4cc(F)ccc4C(=O)NC4CC4)ccc23)nc1 [Compound I-83, N-cyclopropyl-4-fluoro-2-({3-[(E)-2-{5-[(diethylamino)methyl]pyridin-2-yl}ethenyl]-1H-indazol-6-yl}thio)benzamide]	> 0.05	79.6 µg/mL (≈ 154 µM)	
CCN(CC)Cc1ccc(/C=C/c2n[nH]c3cc(Sc4ccccc4C(=O)NC)ccc23)nc1 [Compound I-90]	0.01 to 0.05	31.9 µg/mL (≈ 67.6 µM)	
CCN(CC)Cc1ccc(/C=C/c2n[nH]c3cc(Sc4c(F)cccc4C(=O)NC)ccc23)nc1 [Compound I-91]	0.01 to 0.05	1650 µg/mL (≈ 3370 µM)	
CCN(CC)Cc1ccc(/C=C/c2n[nH]c3cc(Sc4ccccc4C(=O)NCCF)ccc23)nc1 [Compound I-98, 2-({3-[(E)-2-{5-[(diethylamino)methyl]pyridin-2-yl}ethenyl]-1H-indazol-6-yl}sulfanyl)-N-(2-fluoroethyl)benzamide]	> 0.05	456 µg/mL (≈ 905 µM)	
CCN(CC)Cc1ccc(/C=C/c2n[nH]c3cc(Sc4ccccc4C(=O)NCC(F)F)ccc23)nc1 [Compound I-99]	> 0.05	341 µg/mL (≈ 654 µM)	
CCN(CC)Cc1ccc(/C=C/c2n[nH]c3cc(Sc4ccccc4C(=O)NCC(F)(F)F)ccc23)nc1 [Compound I-100]	> 0.05	209 µg/mL (≈ 387 µM)	

Other lines, results leading:

fraction unbound at 2 h, 2 µM (melanin)	solubility at 8 h [1]	IC50 (EGFR)	SMILES
0.01 to 0.05	866 µg/mL (≈ 1780 µM)		CNC(=O)c1ccccc1Sc1ccc2c(/C=C/c3ccn(CCCN4CCCC4)n3)n[nH]c2c1 [Compound I-11]
0.01 to 0.05	278 µg/mL (≈ 556 µM)		CNC(=O)c1ccccc1Sc1ccc2c(/C=C/c3cccc(OCCN4CCCC4)n3)n[nH]c2c1 [Compound I-17]
0.01 to 0.05			CNC(=O)c1ccccc1Sc1ccc2c(/C=C/c3ccnc(OCCN4CCCC4)c3)n[nH]c2c1 [Compound I-18]
0.01 to 0.05	128 µg/mL (≈ 256 µM)		CNC(=O)c1ccccc1Sc1ccc2c(/C=C/c3cc(OCCN4CCCC4)ccn3)n[nH]c2c1 [Compound I-20]
> 0.05	57.7 µg/mL (≈ 111 µM)		CNC(=O)c1cccc(F)c1Sc1ccc2c(/C=C/c3ccc(OCCN4CCCC4)cn3)n[nH]c2c1 [Compound I-33, 3-fluoro-N-methyl-2-({3-[(E)-2-{5-[2-(pyrrolidin-1-yl)ethoxy]pyridin-2-yl}ethenyl]-1H-indazol-6-yl}sulfanyl)benzamide]
> 0.05	19.3 µg/mL (≈ 37.3 µM)		CNC(=O)c1cc(F)ccc1Sc1ccc2c(/C=C/c3ccc(OCCN4CCCC4)cn3)n[nH]c2c1 [Compound I-34, 5-fluoro-N-methyl-2-({3-[(E)-2-{5-[2-(pyrrolidin-1-yl)ethoxy]pyridin-2-yl}ethenyl]-1H-indazol-6-yl}sulfanyl)benzamide]
0.01 to 0.05	26.6 µg/mL (≈ 51.4 µM)		CNC(=O)c1ccc(F)cc1Sc1ccc2c(/C=C/c3ccc(OCCN4CCCC4)cn3)n[nH]c2c1 [Compound I-35, 4-fluoro-N-methyl-2-({3-[(E)-2-{5-[2-(pyrrolidin-1-yl)ethoxy]pyridin-2-yl}ethenyl]-1H-indazol-6-yl}sulfanyl)benzamide]
0.01 to 0.05			CCNC(=O)c1ccccc1Sc1ccc2c(/C=C/c3ccc(CN4CCCC4)cn3)n[nH]c2c1 [Compound I-73, N-ethyl-2-({3-[(E)-2-{5-[(pyrrolidin-1-yl)methyl]pyridin-2-yl}ethenyl]-1H-indazol-6-yl}thio)benzamide]
> 0.05	1770 µg/mL (≈ 3520 µM)		CNC(=O)c1cccc(F)c1Sc1ccc2c(/C=C/c3cnn(CCCN4CCCC4)c3)n[nH]c2c1 [Compound I-76]
0.01 to 0.05	199 µg/mL (≈ 387 µM)		O=C(NC1CC1)c1cc(F)ccc1Sc1ccc2c(/C=C/c3ccc(CN4CCCC4)cn3)n[nH]c2c1 [Compound I-80]
0.01 to 0.05			CCN(CC)Cc1ccc(/C=C/c2n[nH]c3cc(Sc4ccc(F)cc4C(=O)NC)ccc23)nc1 [Compound I-93]
0.01 to 0.05	31.8 µg/mL (≈ 65.2 µM)		CNC(=O)c1ccc(F)cc1Sc1ccc2c(/C=C/c3ccc(CN4CCCC4)cn3)n[nH]c2c1 [Compound I-94]
0.01 to 0.05			CNC(=O)c1ccccc1Sc1ccc2c(/C=C/c3ccc(CCN4CCCC4)cn3)n[nH]c2c1 [Compound I-107]
0.01 to 0.05			O=C(NC1CC1)c1ccccc1Sc1ccc2c(/C=C/c3cc(CN4CCCC4)ccn3)n[nH]c2c1 [Compound I-115]
		> 60 µM	CCNC(=O)c1cc(F)ccc1Sc1ccc2c(/C=C/c3cc(CCCN4CCCC4)ccn3)n[nH]c2c1 [Compound I-122]
